Here are results for one compound from article PMC8000889, “Phenolic Compounds from Leaves and Flowers of Hibiscus roseus: Potential Skin Cosmetic Applications of an Under-Investigated Species” (Plants, 2021).

SMILES strings stand for the structures. ≈ marks a conversion by molar mass, not a printed value.

In this assay the target is T1, collagenase (Collagenase Activity Assay Kit, Sigma-Aldrich).
T1 construct: gene colG
The assay can be described thus: FALGPA hydrolysis, absorbance at […] nm. Type of assay: biochemical. The settings on record: substrate FALGPA; 96-well plate, 200 μL, followed for 20 min.

The IC50 is the concentration that gives 50% inhibition. Compound `O=c1c(O)c(-c2ccc(O)c(O)c2)oc2cc(O)cc(O)c12` [quercetin] displayed an IC50 of 5.6 ± 0.7 µg/mL (≈ 18.5 µM).
